From ChEMBL document CHEMBL3097998, “Oxidative cleavage of DNA by pentamethine carbocyanine dyes irradiated with long-wavelength visible light” (Bioorg Med Chem Lett, 2014)
The source made the active and inactive calls. The rule behind the calls is not given here.

Key:
Escherichia coli [1] = experiment: Induction of Escherichia coli pUC19 DNA photocleavage assessed as conversion of supercoiled DNA to linear and nicked form of DNA at 10 uM treated for 60 mins followed by irradiation at 700 nm for 60 mins by agarose gel electrophoresis (reference value: 3%)
Escherichia coli [2] = experiment: Induction of Escherichia coli pUC19 DNA photocleavage assessed as conversion of supercoiled DNA to linear and nicked form of DNA at 10 uM treated for 60 mins followed by irradiation at 575 nm for 60 mins by agarose gel electrophoresis (reference value: 6 +/- 2%)
Escherichia coli [3] = experiment: Induction of Escherichia coli pUC19 DNA photocleavage assessed as conversion of supercoiled DNA to linear and nicked form of DNA at 10 uM treated for 60 mins followed by irradiation at 588 nm for 60 mins by agarose gel electrophoresis (reference value: 15%)
Escherichia coli [4] = experiment: Induction of Escherichia coli pUC19 DNA photocleavage at 10 uM treated for 60 mins followed by irradiation at 575 nm for 60 mins by agarose gel electrophoresis in presence of sodium azide
Escherichia coli [5] = experiment: Induction of Escherichia coli pUC19 DNA photocleavage at 10 uM treated for 60 mins followed by irradiation at 575 nm for 60 mins by agarose gel electrophoresis in presence of sodium benzoate
Escherichia coli [6] = experiment: Induction of Escherichia coli pUC19 DNA photocleavage assessed as conversion of supercoiled DNA to linear and nicked form of DNA at 10 uM treated for 60 mins followed by irradiation at 623 nm for 60 mins by agarose gel electrophoresis (reference value: 10%)
Escherichia coli [7] = experiment: Induction of Escherichia coli pUC19 DNA cleavage assessed as conversion of supercoiled DNA to linear and nicked form of DNA at 10 uM after 60 mins by agarose gel electrophoresis
DNA [8] = experiment: Binding affinity to calf thymus DNA at 10 uM incubated for 60 mins under dark condition by fluorescence emission spectra analysis; format: nucleic-acid assay; conditions: Bos taurus
DNA [9] = experiment: Binding affinity to calf thymus DNA at 10 uM using sequential DNA addition followed by 15 mins incubation under dark condition by UV-visible spectroscopy; format: nucleic-acid assay; conditions: Bos taurus
DNA [10] = experiment: Binding affinity to calf thymus DNA at 10 uM after 60 mins by UV-visible absorption spectra analysis; format: nucleic-acid assay; conditions: Bos taurus
Escherichia coli [11] = experiment: Induction of Escherichia coli pUC19 DNA photocleavage assessed as conversion of supercoiled DNA to linear and nicked form of DNA after 60 mins followed by irradiation at 575 nm for 60 mins by agarose gel electrophoresis

Question: What does the source list for CN1/C(=C/C=C/C=C/C2=[N+](C)c3ccc4ccccc4c3C2(C)C)C(C)(C)c2c1ccc1ccccc21?
Answer: Activity (Escherichia coli [1]): 18%; Activity (Escherichia coli [2]): 59%; Activity (Escherichia coli [3]): 25%; Activity (Escherichia coli [4]): inactive; Activity (Escherichia coli [5]): inactive; Activity (Escherichia coli [6]): 29%; Activity (Escherichia coli [7]): 2%; Activity (DNA [8]): Active; Activity (DNA [9]): Active; Activity (DNA [10]): Active

Question: For CC1(C)C(/C=C/C(Cl)=C/C=C2/N(CCCc3ccccc3)c3ccc4ccccc4c3C2(C)C)=[N+](CCCc2ccccc2)c2ccc3ccccc3c21, which Activity (Escherichia coli [1]) is on record?
Answer: Its Activity is 2%.

Question: And the Activity (Escherichia coli [2])?
Answer: The Activity was 13%.

Question: And the Activity (Escherichia coli [3])?
Answer: The Activity was 13%.

Question: And the Activity (Escherichia coli [6])?
Answer: Its Activity is 8%.

Question: And the Activity (Escherichia coli [7])?
Answer: Its Activity is 4%.

Question: What about the Activity (DNA [8]) of the same compound?
Answer: The Activity was “Active”.

Question: Which results are given for CC1(C)C(/C=C/C(Cl)=C/C=C2/N(CCC[N+](C)(C)C)c3ccc4ccccc4c3C2(C)C)=[N+](CCC[N+](C)(C)C)c2ccc3ccccc3c21?
Answer: Activity (Escherichia coli [1]): 67%; Activity (Escherichia coli [2]): 91%; Activity (Escherichia coli [3]): 55%; Activity (Escherichia coli [11]): Dose-dependent effect; Activity (Escherichia coli [4]): inactive; Activity (Escherichia coli [5]): inactive; Activity (Escherichia coli [6]): 48%; Activity (Escherichia coli [7]): 5%; Activity (DNA [8]): Active; Activity (DNA [9]): Active; Activity (DNA [10]): Active

Question: With CC1(C)C(/C=C/C(Br)=C/C=C2/N(CCC[N+](C)(C)C)c3ccc4ccccc4c3C2(C)C)=[N+](CCC[N+](C)(C)C)c2ccc3ccccc3c21 as the compound, how does the Activity (Escherichia coli [1]) read?
Answer: Its Activity is 59%.

Question: And the Activity (Escherichia coli [2])?
Answer: The Activity was 78%.

Question: And the Activity (Escherichia coli [3])?
Answer: The Activity was 47%.

Question: And the Activity (Escherichia coli [11])?
Answer: The Activity was “Dose-dependent effect”.

Question: What about the Activity (Escherichia coli [4]) of the same compound?
Answer: Its Activity is “inactive”.

Question: What about the Activity (Escherichia coli [5]) of the same compound?
Answer: The Activity was “inactive”.

Question: And the Activity (Escherichia coli [6])?
Answer: Its Activity is 56%.

Question: And the Activity (Escherichia coli [7])?
Answer: The Activity was 7%.

Question: What about the Activity (DNA [8]) of the same compound?
Answer: Its Activity is “Active”.

Question: And the Activity (DNA [9])?
Answer: The Activity was “Active”.

Question: And the Activity (DNA [10])?
Answer: The Activity was “Active”.

Question: Which results are given for CC1(C)C(/C=C/C=C/C=C2/N(CCC[N+](C)(C)C)c3ccc4ccccc4c3C2(C)C)=[N+](CCC[N+](C)(C)C)c2ccc3ccccc3c21?
Answer: Activity (Escherichia coli [1]): 34%; Activity (Escherichia coli [2]): 47%; Activity (Escherichia coli [3]): 20%; Activity (Escherichia coli [4]): inactive; Activity (Escherichia coli [5]): inactive; Activity (Escherichia coli [6]): 41%; Activity (Escherichia coli [7]): 1%; Activity (DNA [8]): Active; Activity (DNA [9]): Active; Activity (DNA [10]): Active

Question: With CN1/C(=C/C=C(Cl)/C=C/C2=[N+](C)c3ccc4ccccc4c3C2(C)C)C(C)(C)c2c1ccc1ccccc21 as the compound, how does the Activity (Escherichia coli [1]) read?
Answer: The Activity was 33%.

Question: And the Activity (Escherichia coli [2])?
Answer: The Activity was 83%.

Question: What about the Activity (Escherichia coli [3]) of the same compound?
Answer: Its Activity is 46%.

Question: What about the Activity (Escherichia coli [11]) of the same compound?
Answer: The Activity was “Dose-dependent effect”.

Question: What about the Activity (Escherichia coli [4]) of the same compound?
Answer: Its Activity is “inactive”.

Question: And the Activity (Escherichia coli [5])?
Answer: Its Activity is “inactive”.

Question: And the Activity (Escherichia coli [6])?
Answer: The Activity was 42%.

Question: What about the Activity (Escherichia coli [7]) of the same compound?
Answer: Its Activity is 2%.

Question: What about the Activity (DNA [8]) of the same compound?
Answer: Its Activity is “Active”.

Question: And the Activity (DNA [9])?
Answer: Its Activity is “Active”.

Question: And the Activity (DNA [10])?
Answer: Its Activity is “Active”.

Question: Which results are given for CN1/C(=C/C=C(Br)/C=C/C2=[N+](C)c3ccc4ccccc4c3C2(C)C)C(C)(C)c2c1ccc1ccccc21?
Answer: Activity (Escherichia coli [1]): 49%; Activity (Escherichia coli [2]): 86%; Activity (Escherichia coli [3]): 55%; Activity (Escherichia coli [11]): Dose-dependent effect; Activity (Escherichia coli [4]): inactive; Activity (Escherichia coli [5]): inactive; Activity (Escherichia coli [6]): 46%; Activity (Escherichia coli [7]): 3%; Activity (DNA [8]): Active; Activity (DNA [9]): Active; Activity (DNA [10]): Active
